Here are results for nine compounds from patent publication US7625879B2 (priority 1998, dated 2009).

For data set [1], the system named is Tγ9δ2 lymphocytes. The experiment in a line: Stimulation of the proliferation of Tγ9δ2 lymphocytes in a culture. The class given is cell-based, human. Conditions: effective dose at 50% of the maximum polyclonal lymphocyte amplification effect; 8 days culture with hIL-2; read-out: ED 50% (the source's name). As to the method:
20 microliters of the aqueous solution of the compound according to the invention adjusted to the final concentration specified in the test are added to an in vitro culture of 10^6 total T lymphocytes in 1 ml, separated from the blood of a healthy adult human donor and initially containing 1-5% of Tγ9δ2 lymphocytes, in an adequate culture medium (RPMI 1640+10% of inactivated human serum and 50 U/ml of human interleukin-2 (hIL-2)). After culturing for 4 days, 50 U of dIL-2 are added per milliliter of culture medium. After 8 days, the cells are counted, collected, washed with phosphate buffer, and the Tγ9δ2 type cells are detected in the culture by labeling with conventional commercial reagents (fluorescein-labeled monoclonal antibodies) and the proportion thereof determined by flux cytometry analysis. The parameter measured is either the change in the proportion of or the increase in the number of Tγ9δ2 cells in cultures in the presence of the compound according to the invention in comparison with cultures not containing a compound according to the invention.

Data set [2] has as its system Tγ9δ2 lymphocytes. The experiment in a line: Reactivity ex vivo of Tγ9δ2 lymphocytes from injected macaques in culture. The class given is cell-based, Macaca fascicularis. As for the experimental part:
(§1) These tests are performed on monkeys of the species Macaca fascicularis (males weight 3-4 kg) anaesthetized with 15 mg/kg Zoletil (zolazepam)®/0.01 mg/kg atropine. The batches of BrHPP (in NA^+ form) are subjected to prior purity testing (>99%), quantified and have been tested in accordance with the pyrogenicity tests of Example 12. The animals are injected by rapid intravenous injection (2-5 minutes into the saphenous vein) with 0.1 mg/kg of BrHPP (i.e. 0.3-0.4 mg per animal) diluted in 10 ml of Ringer lactate. Each animal also receives a subcutaneous injection of 90,000 units of interleukin-2 (IL-2). These injections are performed once daily for four days. Control animals receive only the subcutaneous injection of IL-2 once daily for four days.
(§2) The proportion of Tγ9δ2 lymphocytes in total lymphocytes in the various animals is compared in the following three situations: • in the animal's bloodstream, • in a culture of total lymphocytes taken from the animal receiving only BrHPP, • in a culture of total lymphocytes talken from the animal receiving BrHPP+IL-2.

The subject of data set [3] is Tγ9δ2 lymphocytes. The experiment in a line: In vivo bioactivity in the macaque: Tγ9δ2 lymphocytes in the blood. The arrangement: species or system Macaca fascicularis. Conditions: for % of Tγ9δ2 lymphocytes in the blood in vivo (7 days after injection): animals injected BrHPP only. As to the method:
as §1, §2

Data set [4] in a line: Pyrogenicity in rabbits (ISO-10993-11, USP XXIII). The class given is in vivo. As to the method:
This test is performed in accordance with a protocol specified by standards ISO-10993-11 (1993) and USP XXIII. […] Temperature is taken every 30 minutes for 3 hours starting 30 minutes after the injection.

Data set [5] can be described thus: Toxicity of BrHPP (sodium salt) in mice, intravenous injection. The class given is in vivo. As for the experimental part:
Eight 30 g mice received an intravenous injection (caudal vein) of 300 μl of PBS buffer containing 1 mg of BrHPP (sodium salt). […] Toxicity is thus less than 12.5% for a dose of 33.4 mg of BrHPP (Na^+) per kilogram of animal body weight.

For data set [6], the system named is Tγ9δ2 lymphocyte clone. The experiment in a line: Stimulation of induced cytotoxicity of a Tγ9δ2 lymphocyte clone.
Data set [7] concerns human Tγ9δ2 lymphocytes. Conditions: cited from earlier work.
The mark [8] stands for this setting: animals injected BrHPP only, twice (1 injection + 1 booster).

Where a name gives a salt, the structure may show the parent alone.

For the compound “3-(bromomethyl)-3-butanol-1-yl diphosphate [BrHPP]”, the EC50 in data set [1] worked out at 10 nM. In addition, the figures for the “Reactivity ex vivo of Tγ9δ2 lymphocytes (% after 10 days' culturing in vitro), Amplification by 40 nM BrHPP” value in data set [2] (animals injected BrHPP + IL-2), in data set [2] (animals injected BrHPP only) and in data set [2] (setting [8]) were 10%, 1% and 1%, respectively. Also, the “Reactivity ex vivo of Tγ9δ2 lymphocytes (% after 10 days' culturing in vitro), Amplification by 40 nM BrHPP + IL-2” value is on record as 50.0% in data set [2] (animals injected BrHPP + IL-2) and 40.2% in data set [2] (setting [8]). The “% of Tγ9δ2 lymphocytes in the blood in vivo (7 days after injection)” value in data set [3] (i.v. 0.1 mg/kg, Na+ form) is recorded as approximately 1%; in data set [3] (twice (1 injection + 1 booster)) it was approximately 1%. Moreover, the “effect on the monkey's Tγ9δ2 lymphocytes in vivo” value in data set [3] (intravenous injection of BrHPP in the presence of subcutaneous IL-2) is “preactivates these same cells and brings about the growth thereof in vivo”; in data set [3] (single or repeated intravenous injection of BrHPP alone), “preactivates the monkey's Tγ9δ2 lymphocytes, but does not stimulate the growth thereof in the animal”.
“3-(chloromethyl)-3-butanol-1-yl diphosphate [CIHPP]”: the EC50 in data set [1] stood at 100 nM.
Regarding “3-(iodomethyl)-3-butanol-1-yl diphosphate [IHPP]”, the EC50 in data set [1] was found to be 3 nM.
Turning to `CC(O)(CBr)CCOP(=O)(O)OP(=O)(O)O` (stereo not shown) [BrHPP (sodium salt), 3-(bromomethyl)-3-butanol-1-yl diphosphate], the side-effect on injection entry in data set [4] (400 μg/ml solution, i.v.) was “muscle tremors”. Moreover, in data set [4] (solution diluted 1:40 to 10 μg/ml, one rabbit, in 19 minutes), the “reaction to the injection” value is recorded as “no reaction to the injection”. Besides, in data set [4] (three rabbits, i.v. 400 μg/ml, 10 ml per kilogram, 3 hours), the “febrile reaction (increase in temperature greater than 0.5° C.)” value is “Only one rabbit exhibited an increase in temperature of greater than 0.5 °C”. Moreover, the Toxicity entry in data set [5] (dose of 33.4 mg per kilogram of animal body weight, i.v.) was “less than 12.5%”. The “signs of shock or pyrogenicity” value in data set [5] (eight 30 g mice, i.v. caudal vein, 1 mg in 300 μl PBS) was “No sign of shock or pyrogenicity”. In data set [5] (i.v. 1 mg per 30 g mouse, during the study), the “variation in the weight of the mice” value is “no significant variation”. In addition, the “mice still alive after 30 days” value in data set [5] (of eight mice, i.v. 1 mg per 30 g mouse) is listed as 8 mice.
Turning to `CC(O)(CBr)CCOP(=O)(O)OP(=O)(O)OP(=O)(O)O` (stereo not shown) [BrHPPP, 3-(bromomethyl)-3-butanol-1-yl triphosphate], in data set [1], the EC50 is 120 nM.
On to `CC(O)(CI)CCOP(=O)(O)OP(=O)(O)OP(=O)(O)O` (stereo not shown) [IHPPP, 3-(iodomethyl)-3-butanol-1-yl triphosphate], for which the EC50 in data set [1] amounted to 70 nM.
On the same count and under the same terms, then `CC(O)(CBr)CCOP(=O)(O)OP(=O)(O)OP(=O)(O)OCCC(C)(O)CBr` (stereo not drawn) [di-BrHTP, α,γ di-[3-(bromomethyl)-3-butanol-1-yl] triphosphate], with 3000 nM.
In the case of isopentenyl pyrophosphate [IPP], the EC50 in data set [1] was 3000 nM. In data set [6] (Tγ9δ2 lymphocyte clone, decreasing concentrations, FIG. 2), the “concentration at which active in induced cytotoxicity test” value was approximately 3000 nM. The “active concentration relative to the compounds according to the invention” value in data set [6] (induced cytotoxicity test) is listed as approximately 300 times higher. Besides, in data set [7] (best results obtained, prior art compounds), the “minimum active concentration (no activity demonstrated below)” value was not below 3 µM. In addition, in data set [7], the “minimum active concentration relative to natural phosphoantigens” value is approximately 1000 times higher.
Turning to “α,γ di-[3-(iodomethyl)-3-butanol-1-yl] triphosphate [di-IHTP]”, the EC50 in data set [1] is 7000 nM.
